ChEMBL document CHEMBL1155084 (J Med Chem, 2008)

Biological target: RAC-alpha serine/threonine-protein kinase (Homo sapiens) (UniProt P31749)
Assay: Inhibition of human PKBalpha at 10 uM
Conditions: not given

RAC-alpha serine/threonine-protein kinase (Homo sapiens), sequence (P31749 whole entry): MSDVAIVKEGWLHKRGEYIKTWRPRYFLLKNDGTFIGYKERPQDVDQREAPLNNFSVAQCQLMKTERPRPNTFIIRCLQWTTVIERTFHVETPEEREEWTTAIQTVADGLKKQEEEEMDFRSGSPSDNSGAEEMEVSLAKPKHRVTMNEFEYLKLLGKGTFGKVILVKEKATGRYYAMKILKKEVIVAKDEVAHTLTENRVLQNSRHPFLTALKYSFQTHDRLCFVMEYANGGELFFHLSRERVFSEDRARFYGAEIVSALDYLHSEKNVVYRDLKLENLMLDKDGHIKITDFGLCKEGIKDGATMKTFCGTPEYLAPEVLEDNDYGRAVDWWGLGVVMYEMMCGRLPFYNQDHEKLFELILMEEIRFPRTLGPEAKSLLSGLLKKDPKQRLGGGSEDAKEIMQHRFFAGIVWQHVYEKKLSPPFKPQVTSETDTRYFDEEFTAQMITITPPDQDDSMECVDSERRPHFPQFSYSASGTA

SMILES | inhibition [%]
CSc1nc(-c2ccc(F)cc2)c(-c2ccnc(NC(C)CCCC(C)C)c2)[nH]1 (stereo not drawn) | 6
CSc1nc(-c2ccc(F)cc2)c(-c2ccnc(NCC3CCCO3)c2)[nH]1 (stereo not drawn) | 12
CSc1nc(-c2ccc(F)cc2)c(-c2ccnc(NC(C)CCc3ccccc3)c2)[nH]1 (stereo not drawn) | 5

Biological target: Rho-associated protein kinase 2 (Homo sapiens) (UniProt O75116)
Assay: Inhibition of human ROCK2 at 10 uM
Conditions: not given

Rho-associated protein kinase 2 (Homo sapiens), sequence (O75116 whole entry, looked up): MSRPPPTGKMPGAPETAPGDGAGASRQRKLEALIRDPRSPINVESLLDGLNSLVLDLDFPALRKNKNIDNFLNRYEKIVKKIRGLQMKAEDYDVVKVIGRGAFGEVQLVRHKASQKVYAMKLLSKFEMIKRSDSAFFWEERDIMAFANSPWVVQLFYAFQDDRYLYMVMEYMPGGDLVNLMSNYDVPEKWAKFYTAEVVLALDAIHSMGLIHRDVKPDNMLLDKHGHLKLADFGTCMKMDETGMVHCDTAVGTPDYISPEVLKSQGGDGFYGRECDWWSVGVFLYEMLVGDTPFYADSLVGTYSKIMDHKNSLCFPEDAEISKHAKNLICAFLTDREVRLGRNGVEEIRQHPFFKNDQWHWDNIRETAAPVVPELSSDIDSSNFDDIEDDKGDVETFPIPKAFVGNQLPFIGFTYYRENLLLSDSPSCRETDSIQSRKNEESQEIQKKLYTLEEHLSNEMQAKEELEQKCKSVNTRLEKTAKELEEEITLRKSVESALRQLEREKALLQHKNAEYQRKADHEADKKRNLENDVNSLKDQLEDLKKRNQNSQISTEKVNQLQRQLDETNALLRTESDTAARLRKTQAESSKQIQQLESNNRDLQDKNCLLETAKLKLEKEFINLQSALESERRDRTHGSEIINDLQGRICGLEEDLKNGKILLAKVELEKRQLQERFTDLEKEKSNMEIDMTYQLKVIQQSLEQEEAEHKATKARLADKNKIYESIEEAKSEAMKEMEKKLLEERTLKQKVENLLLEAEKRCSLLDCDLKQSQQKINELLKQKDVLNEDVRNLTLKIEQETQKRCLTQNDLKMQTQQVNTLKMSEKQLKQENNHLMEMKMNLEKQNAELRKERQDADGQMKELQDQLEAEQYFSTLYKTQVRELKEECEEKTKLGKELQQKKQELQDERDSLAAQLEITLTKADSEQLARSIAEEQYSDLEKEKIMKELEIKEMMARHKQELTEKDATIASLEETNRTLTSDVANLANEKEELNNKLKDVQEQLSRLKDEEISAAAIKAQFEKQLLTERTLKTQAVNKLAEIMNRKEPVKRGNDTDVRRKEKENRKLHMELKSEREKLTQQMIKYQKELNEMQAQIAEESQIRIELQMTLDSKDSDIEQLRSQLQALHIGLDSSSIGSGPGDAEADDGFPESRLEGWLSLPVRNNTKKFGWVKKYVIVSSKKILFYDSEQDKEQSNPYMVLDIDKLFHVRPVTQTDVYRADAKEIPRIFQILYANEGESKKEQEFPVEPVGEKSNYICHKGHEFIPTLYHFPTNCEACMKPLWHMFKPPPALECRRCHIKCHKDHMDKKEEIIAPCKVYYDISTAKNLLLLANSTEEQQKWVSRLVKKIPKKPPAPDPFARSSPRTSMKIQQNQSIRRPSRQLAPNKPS

SMILES | inhibition [%]
CSc1nc(-c2ccc(F)cc2)c(-c2ccnc(NC(C)CCCC(C)C)c2)[nH]1 (stereo not drawn) | 0
CSc1nc(-c2ccc(F)cc2)c(-c2ccnc(NCC3CCCO3)c2)[nH]1 (stereo not drawn) | 0
CSc1nc(-c2ccc(F)cc2)c(-c2ccnc(NC(C)CCc3ccccc3)c2)[nH]1 (stereo not drawn) | 0

Biological target: Mitogen-activated protein kinase 3 (Homo sapiens) (UniProt P27361)
Assay: Inhibition of human ERK1 at 10 uM
Conditions: not given

Mitogen-activated protein kinase 3 (Homo sapiens), sequence (P27361 whole entry): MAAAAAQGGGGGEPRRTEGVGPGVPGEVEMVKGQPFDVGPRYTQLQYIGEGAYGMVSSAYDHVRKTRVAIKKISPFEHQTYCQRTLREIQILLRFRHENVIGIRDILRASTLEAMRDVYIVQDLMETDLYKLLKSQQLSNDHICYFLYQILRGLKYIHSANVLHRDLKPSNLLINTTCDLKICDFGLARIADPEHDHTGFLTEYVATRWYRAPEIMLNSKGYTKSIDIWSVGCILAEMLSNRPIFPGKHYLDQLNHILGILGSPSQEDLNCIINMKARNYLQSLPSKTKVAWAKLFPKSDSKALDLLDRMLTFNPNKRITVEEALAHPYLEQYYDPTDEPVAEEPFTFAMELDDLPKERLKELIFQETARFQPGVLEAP

SMILES | inhibition [%]
CSc1nc(-c2ccc(F)cc2)c(-c2ccnc(NC(C)CCCC(C)C)c2)[nH]1 (stereo not drawn) | 28
CSc1nc(-c2ccc(F)cc2)c(-c2ccnc(NCC3CCCO3)c2)[nH]1 (stereo not drawn) | 18
CSc1nc(-c2ccc(F)cc2)c(-c2ccnc(NC(C)CCc3ccccc3)c2)[nH]1 (stereo not drawn) | 32

Biological target: RAF proto-oncogene serine/threonine-protein kinase (Homo sapiens) (UniProt P04049)
Assay: Inhibition of human c-RAF at 10 uM
Conditions: not given

SMILES | inhibition [%]
CSc1nc(-c2ccc(F)cc2)c(-c2ccnc(NC(C)CCCC(C)C)c2)[nH]1 (stereo not drawn) | 7
CSc1nc(-c2ccc(F)cc2)c(-c2ccnc(NCC3CCCO3)c2)[nH]1 (stereo not drawn) | 0
CSc1nc(-c2ccc(F)cc2)c(-c2ccnc(NC(C)CCc3ccccc3)c2)[nH]1 (stereo not drawn) | 19

Biological target: T1, Mitogen-activated protein kinase 14 (Homo sapiens, UniProt Q16539)
Assay: Inhibition of p38alpha
Conditions: not given

T1 sequence (Q16539 whole entry): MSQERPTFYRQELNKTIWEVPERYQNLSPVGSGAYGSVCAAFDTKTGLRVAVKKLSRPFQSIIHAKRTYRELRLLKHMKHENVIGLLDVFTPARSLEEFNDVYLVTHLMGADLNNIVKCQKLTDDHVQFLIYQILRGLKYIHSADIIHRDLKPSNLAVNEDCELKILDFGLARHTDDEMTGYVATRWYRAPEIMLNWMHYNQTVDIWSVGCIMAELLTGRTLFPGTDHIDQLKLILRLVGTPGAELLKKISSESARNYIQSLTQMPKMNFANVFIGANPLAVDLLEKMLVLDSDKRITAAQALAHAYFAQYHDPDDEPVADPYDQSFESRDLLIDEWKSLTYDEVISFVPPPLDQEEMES

SMILES | IC50 [nM]
CSc1nc(-c2ccc(F)cc2)c(-c2ccnc(NC(C)CCCC(C)C)c2)[nH]1 (stereo not drawn) | 20
CSc1nc(-c2ccc(F)cc2)c(-c2ccnc(NCC3CCCO3)c2)[nH]1 (stereo not drawn) | 35
CSc1nc(-c2ccc(F)cc2)c(-c2ccnc(NC(C)CCc3ccccc3)c2)[nH]1 (stereo not drawn) | 13

Biological target: Dual specificity mitogen-activated protein kinase kinase 1 (Homo sapiens) (UniProt Q02750)
Assay: Inhibition of human MEK1 at 10 uM
Conditions: not given

Dual specificity mitogen-activated protein kinase kinase 1 (Homo sapiens), sequence (Q02750 whole entry): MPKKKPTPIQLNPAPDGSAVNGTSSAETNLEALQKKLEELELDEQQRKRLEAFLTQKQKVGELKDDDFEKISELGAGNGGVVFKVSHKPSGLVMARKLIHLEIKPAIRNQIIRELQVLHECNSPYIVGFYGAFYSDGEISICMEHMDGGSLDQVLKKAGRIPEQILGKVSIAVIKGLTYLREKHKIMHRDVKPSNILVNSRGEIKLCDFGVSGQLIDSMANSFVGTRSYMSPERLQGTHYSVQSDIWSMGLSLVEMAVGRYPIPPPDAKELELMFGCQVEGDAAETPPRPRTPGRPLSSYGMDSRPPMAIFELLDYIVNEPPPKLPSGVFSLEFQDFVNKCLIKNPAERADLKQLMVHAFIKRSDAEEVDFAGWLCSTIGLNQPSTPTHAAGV

SMILES | inhibition [%]
CSc1nc(-c2ccc(F)cc2)c(-c2ccnc(NC(C)CCCC(C)C)c2)[nH]1 (stereo not drawn) | 2
CSc1nc(-c2ccc(F)cc2)c(-c2ccnc(NCC3CCCO3)c2)[nH]1 (stereo not drawn) | 20
CSc1nc(-c2ccc(F)cc2)c(-c2ccnc(NC(C)CCc3ccccc3)c2)[nH]1 (stereo not drawn) | 3

Biological target: Mitogen-activated protein kinase 10 (Homo sapiens) (UniProt P53779)
Assay: Inhibition of human JNK3 at 10 uM
Conditions: not given

SMILES | inhibition [%]
CSc1nc(-c2ccc(F)cc2)c(-c2ccnc(NC(C)CCCC(C)C)c2)[nH]1 (stereo not drawn) | 99
CSc1nc(-c2ccc(F)cc2)c(-c2ccnc(NCC3CCCO3)c2)[nH]1 (stereo not drawn) | 96
CSc1nc(-c2ccc(F)cc2)c(-c2ccnc(NC(C)CCc3ccccc3)c2)[nH]1 (stereo not drawn) | 99

Biological target: CYP3A4 (Homo sapiens, UniProt P08684)
Assay: Inhibition of CYP3A4 at 10 uM
Assay type: ADME
Conditions: not given

CYP3A4, sequence (P08684 whole entry): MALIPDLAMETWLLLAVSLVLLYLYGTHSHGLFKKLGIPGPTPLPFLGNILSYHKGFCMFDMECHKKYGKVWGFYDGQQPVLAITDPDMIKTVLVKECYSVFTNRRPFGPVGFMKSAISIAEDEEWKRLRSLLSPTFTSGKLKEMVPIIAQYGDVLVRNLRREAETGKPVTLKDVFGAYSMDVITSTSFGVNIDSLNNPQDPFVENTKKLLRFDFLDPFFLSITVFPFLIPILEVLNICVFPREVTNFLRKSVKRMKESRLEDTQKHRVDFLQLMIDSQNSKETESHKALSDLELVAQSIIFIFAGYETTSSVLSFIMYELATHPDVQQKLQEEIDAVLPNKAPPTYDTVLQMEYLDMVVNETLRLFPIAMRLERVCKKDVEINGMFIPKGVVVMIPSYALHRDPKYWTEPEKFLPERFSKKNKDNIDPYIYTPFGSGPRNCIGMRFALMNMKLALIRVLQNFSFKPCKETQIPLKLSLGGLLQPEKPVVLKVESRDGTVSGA

SMILES | inhibition at 10 µM [%]
CSc1nc(-c2ccc(F)cc2)c(-c2ccnc(NC(C)CCCC(C)C)c2)[nH]1 (stereo not drawn) | 71
CSc1nc(-c2ccc(F)cc2)c(-c2ccnc(NCC3CCCO3)c2)[nH]1 (stereo not drawn) | 52
CSc1nc(-c2ccc(F)cc2)c(-c2ccnc(NC(C)CCc3ccccc3)c2)[nH]1 (stereo not drawn) | 95

Tested on: not listed separately
Assay: Inhibition of p38 MAPK
Conditions: not given

SMILES | IC50 [nM]
FC(F)(F)c1cccc(-c2nc(-c3ccccc3)[nH]c2-c2ccncc2)c1 | 86
CSc1nc(-c2ccc(F)cc2)c(-c2ccncc2)[nH]1 | 630
Clc1ccc(-c2nc(-c3ccccc3)[nH]c2-c2ccncc2)cc1 | 48
CSc1nc(-c2ccc(F)cc2)c(-c2ccnc(NC(C)c3ccccc3)c2)n1C (stereo not drawn) | 220
CSc1nc(-c2ccc(F)cc2)c(-c2ccnc(NC(C)c3ccccc3)c2)[nH]1 (stereo not drawn) | 380
C[S+]([O-])c1ccc(CSc2nc(-c3ccc(F)cc3)c(-c3ccncc3)[nH]2)cc1 (stereo not drawn) | 4

Biological target: Protein kinase C alpha type (Homo sapiens) (UniProt P17252)
Assay: Inhibition of human PKCalpha at 10 uM
Conditions: not given

SMILES | inhibition [%]
CSc1nc(-c2ccc(F)cc2)c(-c2ccnc(NC(C)CCCC(C)C)c2)[nH]1 (stereo not drawn) | 0
CSc1nc(-c2ccc(F)cc2)c(-c2ccnc(NCC3CCCO3)c2)[nH]1 (stereo not drawn) | 0
CSc1nc(-c2ccc(F)cc2)c(-c2ccnc(NC(C)CCc3ccccc3)c2)[nH]1 (stereo not drawn) | 0

Biological target: CYP2C9 (Homo sapiens, UniProt P11712)
Assay: Inhibition of CYP2C9 at 10 uM
Assay type: ADME
Conditions: not given

CYP2C9, sequence (P11712 whole entry): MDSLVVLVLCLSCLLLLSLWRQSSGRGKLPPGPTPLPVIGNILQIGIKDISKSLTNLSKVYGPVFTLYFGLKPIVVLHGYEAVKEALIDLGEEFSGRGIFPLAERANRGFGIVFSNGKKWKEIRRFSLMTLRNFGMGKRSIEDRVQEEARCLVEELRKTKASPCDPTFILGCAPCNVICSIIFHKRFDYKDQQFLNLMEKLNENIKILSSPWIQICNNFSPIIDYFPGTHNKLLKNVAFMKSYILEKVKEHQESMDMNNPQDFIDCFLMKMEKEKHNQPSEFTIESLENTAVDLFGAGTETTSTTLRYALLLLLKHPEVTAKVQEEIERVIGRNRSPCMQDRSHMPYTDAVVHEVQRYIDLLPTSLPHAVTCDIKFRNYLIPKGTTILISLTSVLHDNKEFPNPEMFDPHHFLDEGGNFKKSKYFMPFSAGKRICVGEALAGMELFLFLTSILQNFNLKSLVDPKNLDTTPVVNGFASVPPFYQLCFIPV

SMILES | inhibition at 10 µM [%]
CSc1nc(-c2ccc(F)cc2)c(-c2ccnc(NC(C)CCCC(C)C)c2)[nH]1 (stereo not drawn) | 76
CSc1nc(-c2ccc(F)cc2)c(-c2ccnc(NCC3CCCO3)c2)[nH]1 (stereo not drawn) | 47
CSc1nc(-c2ccc(F)cc2)c(-c2ccnc(NC(C)CCc3ccccc3)c2)[nH]1 (stereo not drawn) | 88

Tested on: Blood
Assay: Inhibition of TNFalpha release in human whole blood
Assay type: functional, tissue-based
Conditions: not given

SMILES | IC50 [nM]
CSc1nc(-c2ccc(F)cc2)c(-c2ccncc2)[nH]1 | 8650
CSc1nc(-c2ccc(F)cc2)c(-c2ccnc(NC(C)CCCC(C)C)c2)[nH]1 (stereo not drawn) | 3990
CSc1nc(-c2ccc(F)cc2)c(-c2ccnc(NC(C)c3ccccc3)c2)n1C (stereo not drawn) | 3000
CSc1nc(-c2ccc(F)cc2)c(-c2ccnc(NC(C)c3ccccc3)c2)[nH]1 (stereo not drawn) | 4330
CSc1nc(-c2ccc(F)cc2)c(-c2ccnc(NCC3CCCO3)c2)[nH]1 (stereo not drawn) | 515
C[S+]([O-])c1ccc(CSc2nc(-c3ccc(F)cc3)c(-c3ccncc3)[nH]2)cc1 (stereo not drawn) | 1100
CSc1nc(-c2ccc(F)cc2)c(-c2ccnc(NC(C)CCc3ccccc3)c2)[nH]1 (stereo not drawn) | 350

Biological target: Glycogen synthase kinase-3 beta (Homo sapiens) (UniProt P49841)
Assay: Inhibition of human GSK3-beta at 10 uM
Conditions: not given

SMILES | inhibition [%]
CSc1nc(-c2ccc(F)cc2)c(-c2ccnc(NC(C)CCCC(C)C)c2)[nH]1 (stereo not drawn) | 0
CSc1nc(-c2ccc(F)cc2)c(-c2ccnc(NCC3CCCO3)c2)[nH]1 (stereo not drawn) | 10
CSc1nc(-c2ccc(F)cc2)c(-c2ccnc(NC(C)CCc3ccccc3)c2)[nH]1 (stereo not drawn) | 0

Organism: Homo sapiens
Assay: Inhibition of human PKA at 10 uM
Conditions: not given

SMILES | inhibition [%]
CSc1nc(-c2ccc(F)cc2)c(-c2ccnc(NC(C)CCCC(C)C)c2)[nH]1 (stereo not drawn) | 0
CSc1nc(-c2ccc(F)cc2)c(-c2ccnc(NCC3CCCO3)c2)[nH]1 (stereo not drawn) | 1
CSc1nc(-c2ccc(F)cc2)c(-c2ccnc(NC(C)CCc3ccccc3)c2)[nH]1 (stereo not drawn) | 0

Organism: Homo sapiens
Assay: Inhibition of human CAMK2 at 10 uM
Conditions: not given

SMILES | inhibition [%]
CSc1nc(-c2ccc(F)cc2)c(-c2ccnc(NC(C)CCCC(C)C)c2)[nH]1 (stereo not drawn) | 0
CSc1nc(-c2ccc(F)cc2)c(-c2ccnc(NCC3CCCO3)c2)[nH]1 (stereo not drawn) | 61
CSc1nc(-c2ccc(F)cc2)c(-c2ccnc(NC(C)CCc3ccccc3)c2)[nH]1 (stereo not drawn) | 0

Biological target: CYP2D6 (Homo sapiens, UniProt P10635)
Assay: Inhibition of CYP2D6 at 10 uM
Assay type: ADME
Conditions: not given

CYP2D6, sequence (P10635 whole entry): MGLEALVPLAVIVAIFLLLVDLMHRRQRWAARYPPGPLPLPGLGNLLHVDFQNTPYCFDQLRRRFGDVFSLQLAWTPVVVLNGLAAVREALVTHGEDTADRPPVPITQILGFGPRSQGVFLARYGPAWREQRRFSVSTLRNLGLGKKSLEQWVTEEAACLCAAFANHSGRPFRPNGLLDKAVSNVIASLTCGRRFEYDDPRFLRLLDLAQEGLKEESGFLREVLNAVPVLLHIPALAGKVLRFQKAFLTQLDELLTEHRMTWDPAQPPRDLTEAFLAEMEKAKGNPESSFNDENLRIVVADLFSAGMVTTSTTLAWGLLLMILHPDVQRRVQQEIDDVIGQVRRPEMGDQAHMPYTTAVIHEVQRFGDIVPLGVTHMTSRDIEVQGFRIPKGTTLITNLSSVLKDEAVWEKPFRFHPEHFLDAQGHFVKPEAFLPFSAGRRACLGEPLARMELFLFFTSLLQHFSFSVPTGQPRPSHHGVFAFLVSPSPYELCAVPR

SMILES | inhibition at 10 µM [%]
CSc1nc(-c2ccc(F)cc2)c(-c2ccnc(NC(C)CCCC(C)C)c2)[nH]1 (stereo not drawn) | 66
CSc1nc(-c2ccc(F)cc2)c(-c2ccnc(NCC3CCCO3)c2)[nH]1 (stereo not drawn) | 22
CSc1nc(-c2ccc(F)cc2)c(-c2ccnc(NC(C)CCc3ccccc3)c2)[nH]1 (stereo not drawn) | 78

Biological target: Mitogen-activated protein kinase 1 (Homo sapiens) (UniProt P28482)
Assay: Inhibition of human MAPK2/ERK2 at 10 uM
Conditions: not given

SMILES | inhibition [%]
CSc1nc(-c2ccc(F)cc2)c(-c2ccnc(NC(C)CCCC(C)C)c2)[nH]1 (stereo not drawn) | 6
CSc1nc(-c2ccc(F)cc2)c(-c2ccnc(NCC3CCCO3)c2)[nH]1 (stereo not drawn) | 8
CSc1nc(-c2ccc(F)cc2)c(-c2ccnc(NC(C)CCc3ccccc3)c2)[nH]1 (stereo not drawn) | 17

Tested on: Blood
Assay: Inhibition of IL1-beta release in human whole blood
Assay type: functional, tissue-based
Conditions: not given

SMILES | IC50 [nM]
CSc1nc(-c2ccc(F)cc2)c(-c2ccncc2)[nH]1 | 44
CSc1nc(-c2ccc(F)cc2)c(-c2ccnc(NC(C)CCCC(C)C)c2)[nH]1 (stereo not drawn) | 7560
CSc1nc(-c2ccc(F)cc2)c(-c2ccnc(NC(C)c3ccccc3)c2)n1C (stereo not drawn) | 4100
CSc1nc(-c2ccc(F)cc2)c(-c2ccnc(NC(C)c3ccccc3)c2)[nH]1 (stereo not drawn) | 4330
CSc1nc(-c2ccc(F)cc2)c(-c2ccnc(NCC3CCCO3)c2)[nH]1 (stereo not drawn) | 250
C[S+]([O-])c1ccc(CSc2nc(-c3ccc(F)cc3)c(-c3ccncc3)[nH]2)cc1 (stereo not drawn) | 380
CSc1nc(-c2ccc(F)cc2)c(-c2ccnc(NC(C)CCc3ccccc3)c2)[nH]1 (stereo not drawn) | 2370

Biological target: CYP2C19 (Homo sapiens, UniProt P33261)
Assay: Inhibition of CYP2C19 at 10 uM
Assay type: ADME
Conditions: not given

CYP2C19, sequence (P33261 whole entry): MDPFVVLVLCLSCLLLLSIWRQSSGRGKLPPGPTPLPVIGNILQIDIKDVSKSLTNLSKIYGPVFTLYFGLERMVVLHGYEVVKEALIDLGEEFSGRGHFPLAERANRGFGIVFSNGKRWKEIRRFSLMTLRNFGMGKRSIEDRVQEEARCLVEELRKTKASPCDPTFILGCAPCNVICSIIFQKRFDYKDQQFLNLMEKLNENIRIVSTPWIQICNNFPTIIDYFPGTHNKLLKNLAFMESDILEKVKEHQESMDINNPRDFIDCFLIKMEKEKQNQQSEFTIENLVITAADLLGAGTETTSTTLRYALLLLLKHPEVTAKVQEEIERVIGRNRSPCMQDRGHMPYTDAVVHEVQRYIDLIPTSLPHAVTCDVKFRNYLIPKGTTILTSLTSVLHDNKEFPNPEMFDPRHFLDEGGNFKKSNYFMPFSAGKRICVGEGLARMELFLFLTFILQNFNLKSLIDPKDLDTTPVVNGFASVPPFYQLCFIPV

SMILES | inhibition at 10 µM [%]
CSc1nc(-c2ccc(F)cc2)c(-c2ccnc(NC(C)CCCC(C)C)c2)[nH]1 (stereo not drawn) | 84
CSc1nc(-c2ccc(F)cc2)c(-c2ccnc(NCC3CCCO3)c2)[nH]1 (stereo not drawn) | 51
CSc1nc(-c2ccc(F)cc2)c(-c2ccnc(NC(C)CCc3ccccc3)c2)[nH]1 (stereo not drawn) | 89

Biological target: Tyrosine-protein kinase Lck (Homo sapiens) (UniProt P06239)
Assay: Inhibition of human LCK at 10 uM
Conditions: not given

SMILES | inhibition [%]
CSc1nc(-c2ccc(F)cc2)c(-c2ccnc(NC(C)CCCC(C)C)c2)[nH]1 (stereo not drawn) | 47
CSc1nc(-c2ccc(F)cc2)c(-c2ccnc(NCC3CCCO3)c2)[nH]1 (stereo not drawn) | 26
CSc1nc(-c2ccc(F)cc2)c(-c2ccnc(NC(C)CCc3ccccc3)c2)[nH]1 (stereo not drawn) | 30

Biological target: Mitogen-activated protein kinase 9 (Homo sapiens) (UniProt P45984)
Assay: Inhibition of human JNK2alpha2 at 10 uM
Conditions: not given

SMILES | inhibition [%]
CSc1nc(-c2ccc(F)cc2)c(-c2ccnc(NC(C)CCCC(C)C)c2)[nH]1 (stereo not drawn) | 91
CSc1nc(-c2ccc(F)cc2)c(-c2ccnc(NCC3CCCO3)c2)[nH]1 (stereo not drawn) | 86
CSc1nc(-c2ccc(F)cc2)c(-c2ccnc(NC(C)CCc3ccccc3)c2)[nH]1 (stereo not drawn) | 94

Biological target: T2, CYP1A2 (Homo sapiens, UniProt P05177)
T2 sequence (P05177 whole entry): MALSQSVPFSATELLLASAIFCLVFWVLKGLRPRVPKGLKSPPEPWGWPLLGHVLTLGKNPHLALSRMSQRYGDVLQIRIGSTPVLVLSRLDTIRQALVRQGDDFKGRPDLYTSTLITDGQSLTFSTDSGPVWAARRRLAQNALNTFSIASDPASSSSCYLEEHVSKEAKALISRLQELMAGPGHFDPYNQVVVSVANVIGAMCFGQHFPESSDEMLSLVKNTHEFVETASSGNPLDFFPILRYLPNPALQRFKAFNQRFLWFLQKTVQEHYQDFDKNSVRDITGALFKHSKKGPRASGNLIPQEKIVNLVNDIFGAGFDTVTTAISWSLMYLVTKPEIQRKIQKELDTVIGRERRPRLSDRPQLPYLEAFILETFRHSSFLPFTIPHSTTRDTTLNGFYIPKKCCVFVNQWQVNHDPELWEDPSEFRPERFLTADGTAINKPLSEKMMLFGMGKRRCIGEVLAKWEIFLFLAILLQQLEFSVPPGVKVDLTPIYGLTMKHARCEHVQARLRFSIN
Assay: Inhibition of CYP1A2 at 10 uM
Assay type: ADME
Conditions: not given

SMILES | inhibition at 10 µM [%]
CSc1nc(-c2ccc(F)cc2)c(-c2ccnc(NC(C)CCCC(C)C)c2)[nH]1 (stereo not drawn) | 23
CSc1nc(-c2ccc(F)cc2)c(-c2ccnc(NCC3CCCO3)c2)[nH]1 (stereo not drawn) | 70
CSc1nc(-c2ccc(F)cc2)c(-c2ccnc(NC(C)CCc3ccccc3)c2)[nH]1 (stereo not drawn) | 38

Organism: Homo sapiens
Assay: Inhibition of human JNK1-alpha-1/SAPK1c at 10 uM
Conditions: not given

SMILES | inhibition [%]
CSc1nc(-c2ccc(F)cc2)c(-c2ccnc(NC(C)CCCC(C)C)c2)[nH]1 (stereo not drawn) | 86
CSc1nc(-c2ccc(F)cc2)c(-c2ccnc(NCC3CCCO3)c2)[nH]1 (stereo not drawn) | 46
CSc1nc(-c2ccc(F)cc2)c(-c2ccnc(NC(C)CCc3ccccc3)c2)[nH]1 (stereo not drawn) | 88

Biological target: T1, Mitogen-activated protein kinase 14
Assay: not given
Conditions: at 10 µM

SMILES | inhibition [%]
CSc1nc(-c2ccc(F)cc2)c(-c2ccnc(NC(C)CCCC(C)C)c2)[nH]1 (stereo not drawn) | 94
CSc1nc(-c2ccc(F)cc2)c(-c2ccnc(NCC3CCCO3)c2)[nH]1 (stereo not drawn) | 95
CSc1nc(-c2ccc(F)cc2)c(-c2ccnc(NC(C)CCc3ccccc3)c2)[nH]1 (stereo not drawn) | 97
